Data reported in patent US9018206B2, “Carboxamide compounds and their use as calpain inhibitors” (AbbVie Deutschland GmbH & Co. KG, priority 2009, dated 2015).

Tests used:
Format in all cases: biochemical
[1] = target: T1, calpain-I isolated from human erythrocytes (Homo sapiens, UniProt P07384); experiment: Calpain I enzyme inhibition in vitro (kinetic fluorescence assay); details: apparent Ki from IC50 (Cheng-Prussoff); 20 nM calpain-I, 100 μM Suc-Leu-Tyr-AMC, pH 7.3, room temperature
T1 construct: calpain-I—isolated from human erythrocytes; purchased Calbiochem 208713; host or cells: human erythrocytes (tissue-derived)
T1 sequence (P07384 1-714): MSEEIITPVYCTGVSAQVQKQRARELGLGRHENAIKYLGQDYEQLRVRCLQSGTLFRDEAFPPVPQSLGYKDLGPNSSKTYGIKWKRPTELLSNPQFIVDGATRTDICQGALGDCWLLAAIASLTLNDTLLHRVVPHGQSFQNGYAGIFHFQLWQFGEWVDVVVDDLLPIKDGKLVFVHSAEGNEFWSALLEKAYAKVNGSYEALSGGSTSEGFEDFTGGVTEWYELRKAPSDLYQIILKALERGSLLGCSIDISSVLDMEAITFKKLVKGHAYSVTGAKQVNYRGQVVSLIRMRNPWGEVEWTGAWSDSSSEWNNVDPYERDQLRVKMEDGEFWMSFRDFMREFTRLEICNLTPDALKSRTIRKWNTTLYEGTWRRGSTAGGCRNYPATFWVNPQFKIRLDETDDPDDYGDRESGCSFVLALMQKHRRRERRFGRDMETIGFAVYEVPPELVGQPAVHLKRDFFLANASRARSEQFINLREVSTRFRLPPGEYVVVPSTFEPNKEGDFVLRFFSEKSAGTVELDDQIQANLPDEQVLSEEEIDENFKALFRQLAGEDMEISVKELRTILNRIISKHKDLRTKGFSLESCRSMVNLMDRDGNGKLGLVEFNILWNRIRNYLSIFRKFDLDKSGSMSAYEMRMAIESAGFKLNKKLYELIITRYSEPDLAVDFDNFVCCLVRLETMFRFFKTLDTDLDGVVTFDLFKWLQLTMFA
T1 sequence (P04632 1-268 partner): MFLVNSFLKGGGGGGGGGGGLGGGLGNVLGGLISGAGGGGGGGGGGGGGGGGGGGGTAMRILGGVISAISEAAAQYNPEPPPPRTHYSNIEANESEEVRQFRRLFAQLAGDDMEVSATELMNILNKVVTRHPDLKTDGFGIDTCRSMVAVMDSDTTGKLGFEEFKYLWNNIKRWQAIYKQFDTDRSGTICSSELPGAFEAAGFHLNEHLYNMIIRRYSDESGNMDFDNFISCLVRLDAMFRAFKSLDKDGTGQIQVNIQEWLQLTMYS
Experimental: (§1) Testing for blockade of the corresponding enzymic activities was carried out by means of kinetic fluorescence assays (excitation 390 nm, emission 460 nm).
(§2) Apparent Ki values were calculated from the experimentally determined IC50 values by the Cheng-Prussoff relation assuming a reversible competitive enzyme inhibition. The Km values of the substrates used under the assay conditions indicated above were: 90 μM (Z-Phe-Arg-AMC, cathepsin B), 10 μM (Z-Gly-Pro-Arg-AMC, cathepsin K), 2 μM (Z-Phe-Arg-AMC, cathepsin L), and 30 μM (Z-Val-Val-Arg-AMC, cathepsin S).
(§3) The indicated Ki values are averages of the inhibition constants calculated on the basis of 2 to 4 independent dose-effect plots.
(§4) • 20 nM calpain-I—isolated from human erythrocytes (Calbiochem #208713), 100 μM Suc-Leu-Tyr-AMC (Bachem #I-1355) as substrate in buffer with 62 mM imidazole, 0.3 mM CaCl2, 0.10% CHAPS, 0.05% BSA, 1 mM DTT at pH 7.3 and room temperature. 1. Cathepsin B: • 0.25 nM cathepsin B—isolated from human liver (Calbiochem #219362), 100 μM Z-Phe-Arg-AMC (Bachem #I-1160) as substrate 50 mM MES, 2 mM EDTA, 0.05% Brij 35, 2.5 mM L-cysteine, pH 6.0, room temperature. 3. Cathepsin K: • 3 nM cathepsin K activated from recombinant human procathepsin K from E. coli (Calbiochem #342001), 10 μM Z-Gly-Pro-Arg-AMC (Biomol #P-142) as substrate in 50 mM MES, 2 mM EDTA, 0.05% Brij 35, 2.5 mM L-cysteine, pH 6.0, room temperature. 4. Cathepsin L: • 1 nM cathepsin L—isolated from human liver (Calbiochem #219402), 2 μM Z-Phe-Arg-AMC (Bachem #I-1160) as substrate in 50 mM MES, 2 mM EDTA, 0.05% Brij 35, 2.5 mM L-cysteine, pH 6.0, room temperature. 5. Cathepsin S: • 0.5 nM recombinant human cathepsin S from E. coli (Calbiochem #219343), 20 μM Z-Val-Val-Arg-AMC (Bachem #I-1540) as substrate in 50 mM MES, 2 mM EDTA, 0.05% Brij 35, 2.5 mM L-cysteine, pH 6.0, room temperature.

[2] = target: T2, cathepsin B isolated from human liver (Homo sapiens, UniProt P07858); experiment: Cathepsin B enzyme inhibition in vitro (kinetic fluorescence assay); details: Ki(cathepsin B)/Ki(calpain) ratio
T2 construct: cathepsin B—isolated from human liver; purchased Calbiochem 219362; host or cells: human liver (tissue-derived)
Experimental: as §1, §2, §3, §4

[3] = target: T3, cathepsin K activated from recombinant human procathepsin K (Homo sapiens, UniProt P43235); experiment: Cathepsin K enzyme inhibition in vitro (kinetic fluorescence assay); details: Ki(cathepsin K)/Ki(calpain) ratio
T3 construct: purchased Calbiochem 342001; host or cells: E. coli
T3 sequence (P43235 115-329): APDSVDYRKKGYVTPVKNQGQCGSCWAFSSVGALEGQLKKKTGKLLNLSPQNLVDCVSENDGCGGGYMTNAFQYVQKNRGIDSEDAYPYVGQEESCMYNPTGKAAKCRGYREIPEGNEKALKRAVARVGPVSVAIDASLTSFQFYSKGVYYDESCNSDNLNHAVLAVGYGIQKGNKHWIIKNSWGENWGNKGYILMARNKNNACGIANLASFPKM
Experimental: as §1, §2, §3, §4

[4] = target: T4, cathepsin L isolated from human liver (Homo sapiens, UniProt P07711); experiment: Cathepsin L enzyme inhibition in vitro (kinetic fluorescence assay); details: Ki(cathepsin L)/Ki(calpain) ratio
T4 construct: cathepsin L—isolated from human liver; purchased Calbiochem 219402; host or cells: human liver (tissue-derived)
T4 sequence (P07711 114-333): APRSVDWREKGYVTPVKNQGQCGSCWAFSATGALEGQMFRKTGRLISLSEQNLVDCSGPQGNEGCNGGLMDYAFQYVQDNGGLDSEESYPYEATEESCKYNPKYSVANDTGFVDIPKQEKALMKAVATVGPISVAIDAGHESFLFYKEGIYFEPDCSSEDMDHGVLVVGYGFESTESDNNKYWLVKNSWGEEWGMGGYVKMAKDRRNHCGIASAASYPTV
Experimental: as §1, §2, §3, §4

[5] = target: T5, recombinant human cathepsin S (Homo sapiens, UniProt P25774); experiment: Cathepsin S enzyme inhibition in vitro (kinetic fluorescence assay); details: Ki(cathepsin S)/Ki(calpain) ratio
T5 construct: purchased Calbiochem 219343; host or cells: E. coli
T5 sequence (P25774 115-331): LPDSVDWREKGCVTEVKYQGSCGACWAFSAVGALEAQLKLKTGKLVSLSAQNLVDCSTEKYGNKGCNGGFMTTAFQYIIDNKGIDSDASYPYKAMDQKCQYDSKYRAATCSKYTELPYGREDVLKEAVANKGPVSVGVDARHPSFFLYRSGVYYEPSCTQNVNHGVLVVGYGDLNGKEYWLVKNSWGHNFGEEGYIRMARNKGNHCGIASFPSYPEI
Experimental: as §1, §2, §3, §4

| SMILES | Ki [1] [µM] | Sel cat. B [2] | Sel cat. K [3] | Sel cat. L [4] | Sel cat. S [5] |
| --- | --- | --- | --- | --- | --- |
| CCCNC(=O)C(=O)C(Cc1ccccc1)NC(=O)[C@H]1CCC(=O)N1Cc1ccccc1 (mixture of isomers) [Example 26, (2R)-1-Benzyl-N-(3,4-dioxo-1-phenyl-4-(propylamino)butan-2-yl)-5-oxopyrrolidine-2-carboxamide] | 0.1 to 0.6 | +++ (Ki(cathepsin B)/Ki(calpain) ratio of >30) | +++ (Ki(cathepsin K)/Ki(calpain) ratio of >30) | ++ (10<Ki(cathepsin B)/Ki(calpain)≦30) |  |
| O=C(NC1CC1)C(=O)C(Cc1ccccc1)NC(=O)[C@H]1CCC(=O)N1Cc1c(F)cccc1F (mixture of isomers) [Example 48, (2R)—N-(4-(Cyclopropylamino)-3,4-dioxo-1-phenylbutan-2-yl)-1-(2,6-difluorobenzyl)-5-oxopyrrolidine-2-carboxamide] | 0.1 to 0.6 | +++ (Ki(cathepsin B)/Ki(calpain) ratio of >30) |  | ++ (10<Ki(cathepsin B)/Ki(calpain)≦30) |  |
| CCNC(=O)C(=O)C(Cc1ccccc1)NC(=O)[C@H]1CCC(=O)N1Cc1c(F)cccc1F (mixture of isomers) [Example 49, (2R)-1-(2,6-Difluorobenzyl)-N-(4-(ethylamino)-3,4-dioxo-1-phenylbutan-2-yl)-5-oxopyrrolidine-2-carboxamide] | 0.1 to 0.6 | +++ (Ki(cathepsin B)/Ki(calpain) ratio of >30) |  | ++ (10<Ki(cathepsin B)/Ki(calpain)≦30) |  |
| O=C(NNC(=O)c1ccccc1)C(=O)C(Cc1ccccc1)NC(=O)[C@H]1CCC(=O)N1Cc1ccccc1 (mixture of isomers) [Example 57, (2R)—N-(4-(2-Benzoylhydrazinyl)-3,4-dioxo-1-phenylbutan-2-yl)-1-benzyl-5-oxopyrrolidine-2-carboxamide] | 0.05 to 0.1 | + (5<Ki(cathepsin B)/Ki(calpain)≦10) | ++ (10<Ki(cathepsin B)/Ki(calpain)≦30) |  | +++ (Ki(cathepsin S)/Ki(calpain) ratio of >100) |
| O=C(NC1CC1)C(=O)C(Cc1ccccc1)NC(=O)[C@H]1CCC(=O)N1Cc1ccc(C(F)(F)F)cc1 (mixture of isomers) [Example 58, (2R)—N-(4-(Cyclopropylamino)-3,4-dioxo-1-phenylbutan-2-yl)-5-oxo-1-(4-(trifluoromethyl)benzyl)pyrrolidine-2-carboxamide] | 0.1 to 0.6 | + (5<Ki(cathepsin B)/Ki(calpain)≦10) | + (5<Ki(cathepsin K)/Ki(calpain)≦10) |  | ++ (30<Ki(cathepsin B)/Ki(calpain)≦100) |
| NC(=O)C(=O)C(Cc1ccccc1)NC(=O)[C@@H]1CCC(=O)N1Cc1ccccc1 (stereo partly drawn) [Example 2, (2S)—N-(4-Amino-3,4-dioxo-1-phenylbutan-2-yl)-1-benzyl-5-oxopyrrolidine-2-carboxamide] | 0.1 to 0.6 |  | ++ (10<Ki(cathepsin B)/Ki(calpain)≦30) | + (5<Ki(cathepsin L)/Ki(calpain)≦10) |  |
| COc1cccc(CN2C(=O)CC[C@@H]2C(=O)NC(Cc2ccccc2)C(=O)C(N)=O)c1 (stereo partly drawn) [Example 6, (2R)—N-(4-Amino-3,4-dioxo-1-phenylbutan-2-yl)-1-(3-methoxybenzyl)-5-oxopyrrolidine-2-carboxamide] | < 0.05 | + (5<Ki(cathepsin B)/Ki(calpain)≦10) | +++ (Ki(cathepsin K)/Ki(calpain) ratio of >30) |  | ++ (30<Ki(cathepsin B)/Ki(calpain)≦100) |
| NC(=O)C(=O)C(Cc1ccccc1)NC(=O)[C@H]1CCC(=O)N1Cc1ccccc1OC(F)(F)F (stereo partly drawn) [Example 9, (2R)—N-(4-Amino-3,4-dioxo-1-phenylbutan-2-yl)-5-oxo-1-[2-(trifluoromethoxy)-benzyl]pyrrolidine-2-carboxamide] | 0.05 to 0.1 |  | +++ (Ki(cathepsin K)/Ki(calpain) ratio of >30) | +++ (Ki(cathepsin L)/Ki(calpain) ratio of >30) | +++ (Ki(cathepsin S)/Ki(calpain) ratio of >100) |
| NC(=O)C(=O)C(Cc1ccccc1)NC(=O)C1CCS(=O)(=O)N1Cc1ccccc1 (centres unmarked) [Example 10, N-(4-Amino-3,4-dioxo-1-phenylbutan-2-yl)-2-benzylisothiazolidine-3-carboxamide 1,1-dioxide] | < 0.05 | +++ (Ki(cathepsin B)/Ki(calpain) ratio of >30) |  | ++ (10<Ki(cathepsin B)/Ki(calpain)≦30) |  |
| NC(=O)C(=O)C(Cc1ccccc1)NC(=O)[C@H]1CCC(=O)N1Cc1cccc2ccccc12 (stereo partly drawn) [Example 11, (2R)—N-(4-Amino-3,4-dioxo-1-phenylbutan-2-yl)-1-(naphthalen-1-ylmethyl)-5-oxopyrrolidine-2-carboxamide] | < 0.05 | ++ (10<Ki(cathepsin B)/Ki(calpain)≦30) | +++ (Ki(cathepsin K)/Ki(calpain) ratio of >30) |  | ++ (30<Ki(cathepsin B)/Ki(calpain)≦100) |
| NC(=O)C(=O)C(Cc1ccccc1)NC(=O)[C@H]1CCC(=O)N1Cc1cccc(OC(F)(F)F)c1 (stereo partly drawn) [Example 13, (2R)—N-(4-Amino-3,4-dioxo-1-phenylbutan-2-yl)-5-oxo-1-[3-(trifluoromethoxy)-benzyl]pyrrolidine-2-carboxamide] | 0.1 to 0.6 | + (5<Ki(cathepsin B)/Ki(calpain)≦10) | +++ (Ki(cathepsin K)/Ki(calpain) ratio of >30) |  | ++ (30<Ki(cathepsin B)/Ki(calpain)≦100) |
| NC(=O)C(=O)C(Cc1ccccc1)NC(=O)[C@H]1CCCC(=O)N1Cc1ccccc1 (stereo partly drawn) [Example 14, (2R)—N-(4-Amino-3,4-dioxo-1-phenylbutan-2-yl)-1-benzyl-6-oxopiperidine-2-carboxamide] | 0.05 to 0.1 | ++ (10<Ki(cathepsin B)/Ki(calpain)≦30) |  | ++ (10<Ki(cathepsin B)/Ki(calpain)≦30) | ++ (30<Ki(cathepsin B)/Ki(calpain)≦100) |
| C[C@H]1C[C@H](C(=O)NC(Cc2ccccc2)C(=O)C(N)=O)N(Cc2ccccc2)C1=O (stereo partly drawn) [Example 19, (2R,4S)—N-(4-Amino-3,4-dioxo-1-phenylbutan-2-yl)-1-benzyl-4-methyl-5-oxopyrrolidine-2-carboxamide] | < 0.05 | ++ (10<Ki(cathepsin B)/Ki(calpain)≦30) |  | ++ (10<Ki(cathepsin B)/Ki(calpain)≦30) |  |
